# Read-outs that look alike come from different tables or passages of the source.
# What was measured:
# [1] = test system: Plasmodium falciparum, chloroquine-resistant strain Indo; test: activity against P. falciparum in vitro, strain Indo; format: cell-based; conditions: read-out: IC50 (50% growth inhibition)
# Experimental: (§1) Test method for the determination of the activity against P. falciparum in vitro
# (§2) The preparations of the present invention were tested on intraerythrocytary stages of P. falciparum from asynchronous cultures according to the method of Desjardin et al. (Desjardins, R. E. et al: Quantitative assessment of antimalarial activity in vitro by a semiautomated microdilution technique. Antimicrob. Agents Chemother. 16, 710-718, (1979)).
# (§3) The culture medium consisted of RPMI 1640 with the addition of 25 mM HEPES, 25 mM NaHCO3, […] neomycin and 10% human serum (A^+). Human-A^+ erythrocytes were used as the P. falciparum host cells. The parasites were maintained at 37° C. in an atmosphere of 3% O2, 4% CO2, 93% N2 and at 95% relative humidity.
# (§4) In order to determine the activity, the preparations were dissolved in DMSO, pre-diluted in the culture medium to a suitable starting concentration and subsequently titrated-out into microtitre plates in the 2nd stage over 6-7 steps. After the addition of the parasite culture (0.7% parasitemia in 2.5% erythrocyte suspension), the test plates were incubated under the conditions given above for 48 h-72 h. The parasite growth in the different preparation concentrations was determined using [G-^3 H]-hypoxanthin incorporation compared to untreated control cultures on the same test plates. The 50% growth inhibition (IC50) was calculated according to logit regression analysis from the resulting dosage-activity curve.
# (§5) The preparations were tested on at least one chloroquine-resistant and one chloroquine-sensitive P. falciparum strain. Additional sensitive and resistant strains were also included for further characterization.
# (§6) Table 1 below contains the IC50 values measured in vitro for the growth inhibition of chloroquine-sensitive and chloroquine-resistant strains of the human pathogenic Plasmodium falciparum.
# [2] = test system: Plasmodium falciparum, chloroquine-resistant strain ItG2 F6; test: activity against P. falciparum in vitro, strain ItG2 F6; format: cell-based; conditions: read-out: IC50 (50% growth inhibition)
# Experimental: as §1, §2, §3, §4, §5, §6
# [3] = test system: Plasmodium falciparum, chloroquine-sensitive strain HB3; test: activity against P. falciparum in vitro, strain HB3; format: cell-based; conditions: read-out: IC50 (50% growth inhibition)
# Experimental: as §1, §2, §3, §4, §5, §6
# [4] = test system: Plasmodium falciparum, chloroquine-resistant strain W2; test: activity against P. falciparum in vitro, strain W2; format: cell-based; conditions: read-out: IC50 (50% growth inhibition)
# Experimental: as §1, §2, §3, §4, §5, §6
# [5] = test system: Plasmodium falciparum, chloroquine-sensitive strain Ro7 3; test: activity against P. falciparum in vitro, strain Ro7 3; format: cell-based; conditions: read-out: IC50 (50% growth inhibition)
# Experimental: as §1, §2, §3, §4, §5, §6
# [6] = test system: Plasmodium falciparum, chloroquine-sensitive strain NF54; test: activity against P. falciparum in vitro, strain NF54; format: cell-based; conditions: Plasmodium falciparum, read-out: IC50 (50% growth inhibition)
# Experimental: as §1, §2, §3, §4, §5, §6
# [7] = test system: Plasmodium falciparum, chloroquine-resistant strain RFCR3; test: activity against P. falciparum in vitro, strain RFCR3; format: cell-based; conditions: read-out: IC50 (50% growth inhibition)
# Experimental: as §1, §2, §3, §4, §5, §6
# [8] = test system: Plasmodium falciparum, chloroquine-resistant strain 7G8; test: activity against P. falciparum in vitro, strain 7G8; format: cell-based; conditions: read-out: IC50 (50% growth inhibition)
# Experimental: as §1, §2, §3, §4, §5, §6
# [9] = test system: Plasmodium falciparum, chloroquine-resistant strain W2 Mef; test: activity against P. falciparum in vitro, strain W2 Mef; format: cell-based; conditions: 48 h-72 h, read-out: IC50 (50% growth inhibition)
# Experimental: as §1, §2, §3, §4, §5, §6
# [10] = test system: Plasmodium falciparum, chloroquine-sensitive strain RFMEF3; test: activity against P. falciparum in vitro, strain RFMEF3; format: cell-based; conditions: read-out: IC50 (50% growth inhibition)
# Experimental: as §1, §2, §3, §4, §5, §6
# [11] = test system: Plasmodium falciparum, chloroquine-resistant strain K1; test: activity against P. falciparum in vitro, strain K1; format: cell-based; conditions: Plasmodium falciparum, read-out: IC50 (50% growth inhibition)
# Experimental: as §1, §2, §3, §4, §5, §6
# [12] = test system: Plasmodium falciparum, chloroquine-sensitive strain FCH5C2; test: activity against P. falciparum in vitro, strain FCH5C2; format: cell-based; conditions: read-out: IC50 (50% growth inhibition)
# Experimental: as §1, §2, §3, §4, §5, §6
# [13] = test system: Plasmodium berghei (strain ANKA); test: activity against Plasmodium berghei in vivo (infected mice); conditions: for ED50: read-out: ED50 (po)
# Experimental: Test method for the determination of the activity against Plasmodium berghei in vivo
# The preparations according to the present invention were tested on mice infected with malaria pathogens (Plasmodium berghei). Male albino mice (IBM:MORO(SPF), FUELLINSDORF) weighing about 25 g were used as the test animals. They were kept in climatized rooms at 21°-22° C. in groups of 5 animals per cage. They received ad libitum a diet feed with a low PABA content ("NAFAG FUTTER" No. 9009 PAB-45, PABA content 45 mg/kg) and drinking water. On the first day of the test (D0) the test animals were infected with Plasmodium berghei (strain ANKA). For this there was used heparinized blood of a donor mouse with about 30% parasitemia, which was diluted with physiological saline such that it contains 10^8 parasitized erythrocytes per ml. 0.2 ml of this suspension was injected intravenously (i.v.) into the mice to be treated and into the control mice. In untreated control animals the parasitemia normally reaches 30-40% on the third day after the infection (D+3) and the test animals die between days +5 and +7.
# The substances to be tested were dissolved or suspended in distilled water or in a mixture of 7% Tween 80, 3% alcohol (96%) and water. Usually, 0.25 ml of this solution or suspension was administered once subcutaneously and perorally to groups of 5 test animals. Treatment was effected 24 hours after the infection. 10 control animals were treated in the same manner with solvent or suspension medium per test.
# All substances were tested in a first test in a single dosage of 10 mg/kg. Only those substances which in this test (10 mg/kg) had shown a parasitaemia reduction of 90% were used for the titration.
# 48 hours after the treatment (D+3), blood smears were prepared from all animals using blood from tail veins and were stained with Giemsa. The average erythrocyte infection rate (parasitemia in %) in the control groups as well as in the groups which had been treated with the test compounds was determined by counting under a microscope. The difference in the average values of the infection rates of control group (100%) and treated groups was calculated and expressed as a percentage reduction (GI %). The ED50 or ED90 was determined mathematically by means of the JMP programme (nonlinear fit). The ED50 (ED90) in mg/kg is that dose which after single administration reduces the average erythrocyte infection rate by 50% (90%) in comparison to the control group.
# Table 2 below contains data with respect to the activity measured against Plasmodium berghei in mice: GI % is the percentage reduction in the parasitemia after a single dose of 10 mg/kg of the test substance administered perorally (po) or subcutaneously (sc); ED50 and ED90 are the effective doses of the test substance administered perorally or subcutaneously.
# [14] = chloroquine-resistant strain Indo, 48 h-72 h
# [15] = chloroquine-resistant strain ItG2 F6, 48 h-72 h
# [16] = chloroquine-sensitive strain HB3, 48 h-72 h
# [17] = chloroquine-resistant strain W2, 48 h-72 h
# [18] = chloroquine-sensitive strain Ro7 3, 48 h-72 h
# [19] = chloroquine-sensitive strain NF54, 48 h-72 h
# [20] = chloroquine-resistant strain RFCR3, 48 h-72 h
# [21] = chloroquine-resistant strain 7G8, 48 h-72 h
# [22] = chloroquine-sensitive strain RFMEF3, 48 h-72 h
# [23] = chloroquine-resistant strain K1, 48 h-72 h
# [24] = chloroquine-sensitive strain FCH5C2, 48 h-72 h
# [25] = mice, single administration po, dose reducing average erythrocyte infection rate by 50%
# [26] = mice, single dose 10 mg/kg po, 48 hours after treatment (D+3), read-out: GI % at 10 mg/kg (po): percentage reduction in the parasitemia
# [27] = mice, single dose 10 mg/kg sc, 48 hours after treatment (D+3), read-out: GI % at 10 mg/kg (sc): percentage reduction in the parasitemia
SMILES,"IC50 [1, 14] [µg/mL]","IC50 [2, 15] [µg/mL]","IC50 [3, 16] [µg/mL]","IC50 [4, 17] [µg/mL]","IC50 [5, 18] [µg/mL]","IC50 [6, 19] [µg/mL]","IC50 [7, 20] [µg/mL]","IC50 [8, 21] [µg/mL]",IC50 [9] [µg/mL],"IC50 [10, 22] [µg/mL]","IC50 [11, 23] [µg/mL]","IC50 [12, 24] [µg/mL]","ED50 [13, 25] [mg/kg]","inhibition in vivo at 10 mg/kg [13, 26] [%]","inhibition in vivo at 10 mg/kg [13, 27] [%]",further results
"C=CCN(C)CCNc1ccnc2cc(Cl)ccc12 [Example 33, N1 -Allyl-N2-(7-chloro-quinolin-4-yl)-N1-methyl-ethane-1,2-diamine]",0.014,0.009,0.015,0.021,0.01,0.008,0.018,0.018,0.015,0.016,0.014,0.015,5.9,97,97,–
"CCN(CC)CCCC(C)Nc1ccnc2cc(Cl)ccc12 (stereo not drawn) [Chloroquine diphosphate, reference compound]",–,–,–,–,–,–,–,–,0.079,–,–,–,–,–,–,"IC50 ([1]; 48 h): 0.052 µg/mL; IC50 ([2]; 48 h): 0.068 µg/mL; IC50 ([3]; HB3, 48 h): 0.011 µg/mL; IC50 ([4]; W2, 48 h): 0.123 µg/mL; IC50 ([5]; 48 h): 0.008 µg/mL; IC50 ([6]; NF54, 48 h): 0.008 µg/mL; IC50 ([7]; 48 h): 0.13 µg/mL; IC50 ([8]; 7G8, 48 h): 0.081 µg/mL; IC50 ([10]; 48 h): 0.014 µg/mL; IC50 ([11]; K1, 48 h): 0.011 µg/mL; IC50 ([12]; 48 h): 0.012 µg/mL; ED50 ([13]; Erythrocyte, po): 2.4 mg/kg; inhibition in vivo at 10 mg/kg ([13]; po, 48 h, read-out: GI % at 10 mg/kg (po): percentage reduction in the parasitemia): 99.9%; inhibition in vivo at 10 mg/kg ([13]; sc, 48 h, read-out: GI % at 10 mg/kg (sc): percentage reduction in the parasitemia): 99.9%"
"Clc1ccc2c(N[C@@H]3CCCC[C@H]3N3CCCC3)ccnc2c1 (racemic) [Example 10, (1RS,2RS)-(7-Chloro-quinolin-4-yl)-(2pyrrolidin-1-yl-cyclohexyl)-amine]",0.016,0.007,0.008,0.013,0.007,0.007,0.018,0.015,0.015,0.006,0.017,0.005,6.4,99,99,–
"CCN(CC)[C@@H]1CCCC[C@H]1Nc1ccnc2cc(Cl)ccc12 (racemic) [Example 9, (1RS,2RS)-N1-(7-Chloro-quinolin-4-yl)-N2,N2-diethyl-cyclohexane-1,2-diamine]",0.018,0.017,0.014,0.031,0.011,0.011,0.017,0.03,0.025,0.012,0.032,0.015,4.4,99,99.6,–

# — US5596002A, “Method of treating chloroquine-resistant malaria with aminoquinoline derivatives” (Hoffmann-La Roche Inc., priority 1993, dated 1997)
